Results on 17 compounds are retold here after patent publication EP4741391A1, “NMT INHIBITOR, AND PREPARATION METHOD THEREFOR AND USE THEREOF” (Nanjing Synnocare Pharmaceutical Technology Co., Ltd., priority 2023, dated 2025).

pIC50: −log10 of the molar value. A value given as a limit tells only on which side of the number the result lay.

Assay [1] concerns MV-4-11 cells. Kind of assay: Anti-proliferative activity against MV-4-11 cells (three-day cell viability chemiluminescence). The settings on record: MV-4-11 human monocytic leukemia cells, three days of exposure. The class given is cell-based. As to the method:
This study utilized a cell proliferation assay to analyze the cytotoxicity of MV-4-11 human monocytic leukemia cells after three days of exposure to NMT1 inhibitors. The MV-4-11 cell line was purchased from Nanjing Cobuilder Biotechnology Co., Ltd., and cultured in IMDM medium (Viva cell) in an incubator (Thermo) at 37 °C with 5% CO2. In this experiment, NMT1 inhibitors were dissolved in DMSO to obtain 600 µM stock solutions. Dose-response solutions were prepared with a top endpoint compound concentration of 3 µM, followed by three-fold serial dilutions in DMSO, totaling eight data points. The final concentration of DMSO was 0.5%.
MV-4-11 cells were seeded into a white 96-well plate, 80 µL of cell suspension per well, containing 6000 MV-4-11 cells. The cell plate was placed in the CO2 incubator for overnight culture. Then, 20 µL of NMT1 inhibitor solutions at different concentrations were added to the wells. The 96-well plate was placed back into the incubator for three days. Another cell plate was prepared, and the signal was read on the day of drug addition to serve as the maximum value (Max value in the equation below) for data analysis. To this cell plate, 25 µL of cell viability chemiluminescence detection reagent was added per well, followed by incubation at room temperature for 10 minutes to stabilize the luminescence signal. A multi-label analyzer was used for reading.
The raw data were converted into inhibition rates using the equation (Sample - Min) / (Max - Min) * 100%. The IC50 values were then determined by fitting a four-parameter curve (using the "log(inhibitor) vs. response - Variable slope" model in GraphPad Prism). Min: wells treated with 0.5% DMSO; Max: Day 0 wells. Table 1 provides the inhibitory activity of the compounds of the invention on MV-4-11 cell proliferation. Table 1: Compound Inhibitory Activity against NMT1 Enzyme (IC50) and Anti-proliferative Activity against MV-4-11 Cells (IC50)

Assay [2] has as its target T1, NMT1 enzyme (Homo sapiens, UniProt P30419).
T1 sequence (P30419 1-496): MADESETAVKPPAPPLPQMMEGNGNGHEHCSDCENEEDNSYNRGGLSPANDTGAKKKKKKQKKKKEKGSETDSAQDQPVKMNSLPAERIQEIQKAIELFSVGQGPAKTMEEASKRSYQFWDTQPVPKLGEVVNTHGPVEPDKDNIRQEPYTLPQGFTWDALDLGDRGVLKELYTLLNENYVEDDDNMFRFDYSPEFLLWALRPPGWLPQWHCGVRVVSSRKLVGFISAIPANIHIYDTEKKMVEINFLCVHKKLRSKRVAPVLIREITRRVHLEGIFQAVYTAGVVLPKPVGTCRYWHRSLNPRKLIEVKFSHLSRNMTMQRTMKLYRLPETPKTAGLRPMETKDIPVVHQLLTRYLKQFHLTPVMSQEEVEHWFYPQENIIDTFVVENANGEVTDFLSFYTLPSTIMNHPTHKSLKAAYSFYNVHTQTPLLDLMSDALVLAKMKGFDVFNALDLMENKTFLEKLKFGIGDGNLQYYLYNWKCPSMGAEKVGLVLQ
Kind of assay: Inhibitory activity on NMT1 enzyme catalysis (fluorescence intensity, CPM probe). The class given is biochemical. Conditions: 6 nM NMT1 enzyme, 1.25 µM myristoyl-CoA, 20 µM HSPP60 SRC peptide, 45 minutes at 25 °C. As to the method: This study evaluated the ability of the compounds of the invention to inhibit NMT1 catalytic activity in vitro. The experiment used a FI (Fluorescence Intensity) analysis method, characterizing NMT1 inhibitors under conditions of 1.25 µM myristoyl-CoA (Lithium salt, Sigma, M4414). In this experiment, a synthesized peptide with the sequence H-Gly-Ser-Asn-Lys-Ser-Lys-Pro-Lys-NH2, HSPP60SRC (Nanjing Peptide Industry, NJP23953), was used as the reaction substrate. The final concentration of the NMT1 enzyme was 6 nM, the final concentration of CPM (Reactive thiol fluorescence probe, Invitrogen, D346) was 1 µM, the final concentration of HSPP60 SRC was 20 µM, and the final concentration of DMSO was 0.5%.
Compounds were dissolved in DMSO to obtain 10 mM stock solutions. Dose-response solutions were prepared with a top endpoint compound concentration of 3 mM, followed by three-fold serial dilutions in DMSO, totaling ten data points. Using an ECHO acoustic liquid handler (BECKMAN, ECHO 655 system), 0.05 µL of the diluted compound solutions was transferred to a 384-well assay plate (Corning, CLS4514). Then, 2.5 µL of the NMT1 enzyme working solution was added to the 384-well assay plate, followed by incubation at 25 °C for 10 minutes. Subsequently, 5 µL of the CPM and myristoyl-CoA working solution was added, the plate was centrifuged at 1000 rpm for 1 minute, and then 2.5 µL of the HSPP60 SRC working solution was added to initiate the reaction. The reaction was incubated at 25 °C for 45 minutes. The FI signal ([…]; ex: 405 nm) was detected using an HTS high-throughput screening multifunctional microplate reader (BMG, PHERA star FSX).
The inhibition rate of the compounds on NMT1 enzyme catalytic activity was calculated using the following formula: Inhibition Percentage (%) = 100 * (Mean of DMSO group - Mean of Compound group) / (Mean of DMSO group - Mean of Blank control group). The IC50 curve of the compounds was fitted using the software XLfit 5.5.0 according to the nonlinear regression equation. Table 1 provides the inhibitory activity of the compounds of the invention on NMT1 enzyme catalysis.

Usually pIC50 stands for the negative decadic logarithm of the IC50, by convention in mol/L. High values mean a low IC50, low ones a high IC50. Regarding `Cc1c(CCOc2cc(Cl)ccc2-c2ccn3ncc(CN(C)C)c3c2)c(CO)nn1C` [Compound 12, (4-{2-[(5-chloro-2-{3-[(dimethylamino)methyl]-pyrazolo [1,5-a]pyridin-5-yl}phenyl)oxy]ethyl}-1,5-dimethylpyrazol-3-yl)methanol], the negative-log IC50 (pIC50) in assay [1] (Homo sapiens, MV4-11, 72 h) was 7.50; in assay [2] it was 8.44.
Take `Cc1c(CCOc2cc(Cl)ccc2-c2ccn3ncc(CN(C)C)c3c2)c(C#N)nn1C` [Compound 13, 4-{2-[(5-chloro-2-{3-[(dimethylamino)methyl]pyrazolo[1,5-a]pyridin-5-yl}phenyl)oxy]ethyl}-1,5-dimethylpyrazole-3-carbonitrile]: the pIC50 in assay [1] (Homo sapiens, MV4-11, 72 h) is 7.63; in assay [2], 8.55.
Turning to `Cc1nn(C)c(C)c1CCOc1cc(Cl)ccc1-c1ccn2ncc(CN(C)C)c2c1` [Compound 14, 5-(4-chloro-2-{[2-(1,3,5-trimethylpyrazol-4-yl)ethyl]oxy}phenyl)-3-[(dimethylamino)methyl]pyrazolo[1,5-a]pyridine], the pIC50 in assay [1] (Homo sapiens, MV4-11, 72 h) was 7.74; in assay [2], 8.70.
In the case of `CCc1nn(C)c(C)c1CCOc1cc(Cl)ccc1-c1ccn2ncc(CN(C)C)c2c1` [Compound 15, 5-(4-chloro-2-{[2-(3-ethyl-1,5-dimethylpyrazol-4-yl)ethyl]oxy}phenyl)-3-[(dimethylamino)methyl]pyrazolo[1,5-a]pyridine], the negative logarithm of the IC50 (pIC50) in assay [1] (Homo sapiens, MV4-11, 72 h) was 7.68; in assay [2] it was 8.63.
In the case of `Cc1c(CCOc2cc(Cl)ccc2-c2ccn3ncc(CN(C)C)c3c2)c(C(N)=O)nn1C` [Compound 16, 4-{2-[(5-chloro-2-{3-[(dimethylamino)methyl]pyrazolo[1,5-a]pyridin-5-yl}phenyl)oxy]ethyl}-1,5-dimethylpyrazole-3-carboxamide], the pIC50 is 7.38 in assay [1] (Homo sapiens, MV4-11, 72 h) and 8.27 in assay [2].
For `CNC(=O)c1nn(C)c(C)c1CCOc1cc(Cl)ccc1-c1ccn2ncc(CN(C)C)c2c1` [Compound 17, 4-{2-[(5-chloro-2-{3-[(dimethylamino)methyl]pyrazolo[1,5-a]pyridin-5-yl}phenyl)oxy]ethyl}-1,5,N-trimethylp yrazole-3-carboxamide], in that order: 7.59 and 8.62.
For the compound `CCNC(=O)c1nn(C)c(C)c1CCOc1cc(Cl)ccc1-c1ccn2ncc(CN(C)C)c2c1` [Compound 18, 4-{2-[(5-chloro-2-{3-[(dimethylamino)methyl]pyrazolo[1,5-a]pyridin-5-yl}phenyl)oxy]ethyl}-N-ethyl-1,5-dime thylpyrazole-3-carboxamide], the pIC50 is 7.52 in assay [1] (Homo sapiens, MV4-11, 72 h) and 8.53 in assay [2].
`CCN(C)C(=O)c1nn(C)c(C)c1CCOc1cc(Cl)ccc1-c1ccn2ncc(CN(C)C)c2c1` [Compound 19, 4-{2-[(5-chloro-2-{3-[(dimethylamino)methyl]pyrazolo[1,5-a]pyridin-5-yl}phenyl)oxy]ethyl}-N-ethyl-1,5,N-tri methylpyrazole-3-carboxamide]: the negative-log IC50 (pIC50) in assay [1] (Homo sapiens, MV4-11, 72 h) was 7.53; in assay [2] it was 8.49.
For the compound `CCN(CC)C(=O)c1nn(C)c(C)c1CCOc1cc(Cl)ccc1-c1ccn2ncc(CN(C)C)c2c1` [Compound 20, 4-{2-[(5-chloro-2-{3-[(dimethylamino)methyl]pyrazolo[1,5-a]pyridin-5-yl}phenyl)oxy]ethyl}-N,N-diethyl-1,5-dimethylpyrazole-3-carboxamide], the pIC50 was 7.63 in assay [1] (Homo sapiens, MV4-11, 72 h) and 8.56 in assay [2].
On to `CNCc1cnn2ccc(-c3ccc(F)c(F)c3OCCc3c(C(=O)N(C)C)nn(C)c3C)cc12` [Compound 21, 4-{2-[(2,3-difluoro-6-{3-[(methylamino)methyl]pyrazolo[1,5-a]pyridin-5-y 1}phenyl)oxy]ethyl}-1,5,N,N-tetramet hylpyrazole-3-carboxamide], for which the negative logarithm of the IC50 (pIC50) was more than 8.00 in assay [1] (Homo sapiens, MV4-11, 72 h); 8.23 in assay [1]; 8.79 in assay [2].
On to `CNCc1cnn2ccc(-c3ccc(F)c(F)c3OCCc3c(C(=O)NC)nn(C)c3C)cc12` [Compound 22, 4-{2-[(2,3-difluoro-6-{3-[(methylamino)methyl]pyrazolo[1,5-a]pyridin-5-yl}phenyl)oxy]ethyl}-1,5,N-trimethylp yrazole-3-carboxamide], for which the pIC50 in assay [1] (Homo sapiens, MV4-11, 72 h) is 7.98; in assay [2], 8.72.
Regarding `CNCc1cnn2ccc(-c3ccc(F)c(F)c3OCCc3c(C)nn(C)c3C)cc12` [Compound 23, 5-(3,4-difluoro-2-{[2-(1,3,5-trimethylpyrazol-4-yl)ethyl]oxy}phenyl)-3-[(methylamino)methyl]pyrazolo[1,5-a]py ridine], the pIC50 is 7.71 in assay [1] (Homo sapiens, MV4-11, 72 h) and 8.59 in assay [2].
`CCc1nn(C)c(C)c1CCOc1c(-c2ccn3ncc(CNC)c3c2)ccc(F)c1F` [Compound 24, 5-(2-{[2-(3-ethyl-1,5-dimethylpyrazol-4-yl)ethyl]oxy}-3,4-difluorophenyl)-3-[(methylamino)methyl]pyrazolo[1,5-a]pyridine]: the negative logarithm of the IC50 (pIC50) is 7.60 in assay [1] (Homo sapiens, MV4-11, 72 h) and 8.55 in assay [2].
For `CNCc1cnn2ccc(-c3ccc(F)c(F)c3OCCc3c(C(C)C)nn(C)c3C)cc12` [Compound 25, 5-[2-({2-[1,5-dimethyl-3-(prop-2-yl)pyrazol-4-yl]ethyl}oxy)-3,4-difluorophenyl]-3-[(methylamino)methyl]pyrazo lo[1,5-a]pyridine] the same measures were 7.59 and 8.49.
Take `CNCc1cnn2ccc(-c3ccc(F)c(F)c3OCCc3c(CF)nn(C)c3C)cc12` [Compound 26, 5-[3,4-difluoro-2-({2-[3-(fluoromethyl)-1,5-dimethylpyrazol-4-yl]ethyl}oxy)phenyl]-3-[(methylamino)methyl]p yrazolo[1,5-a]pyridine]: the pIC50 in assay [1] (Homo sapiens, MV4-11, 72 h) was 7.91; in assay [2] it was 8.61.
For `CNCc1cnn2ccc(-c3ccc(F)c(F)c3OCCc3c(C#N)nn(C)c3C)cc12` [Compound 27, 4-{2-[(2,3-difluoro-6-{3-[(methylamino)methyl]pyrazolo[1,5-a]pyridin-5-yl}phenyl)oxy]ethyl}-1,5-dimethylpyr azole-3-carbonitrile], the pIC50 was more than 8.00 in assay [1] (Homo sapiens, MV4-11, 72 h); 8.25 in assay [1]; 8.74 in assay [2].
Regarding `CNCc1cnn2ccc(-c3ccc(F)c(F)c3OCCc3c(CC#N)nn(C)c3C)cc12` [Compound 28, (4-{2-[(2,3-difluoro-6-{3-[(methylam ino)methyl]pyrazolo[1,5-a]pyridin-5-yl}phenyl)oxy]ethyl}-1,5-dimethylpyrazol-3-yl)acetonitrile], the pIC50 was 7.97 in assay [1] (Homo sapiens, MV4-11, 72 h) and 8.71 in assay [2].
